ChEMBL document CHEMBL5729568, “Ras inhibitors” (2023)

Key:
GTPase KRas = GTPase KRas (Homo sapiens, UniProt P01116); assay: The purpose of this biochemical assay is to measure the ability of test compounds to covalently label nucleotide-loaded K-Ras isoforms. […] Analysis of raw data may be carried out using Waters MassLynx MS software, with % bound calculated from the deconvoluted protein peaks for labeled and unlabeled K-Ras.
[1] = (§1) Biochemical Assay: A variety of Ras proteins may be inhibited by compounds of the present invention (e.g., K-Ras, N-Ras, H-Ras, and mutants thereof at positions 12, 13 and 61, such as G12C, G12D, G12V, G12S, G13C, G13D, and Q61L, and others described herein). The purpose of this biochemical assay is to measure the ability of test compounds to covalently label nucleotide-loaded K-Ras isoforms. […] The sample is incubated at 25? C. for a time period of up to 24 hours prior to quenching by the addition of 10 uL of 5% Formic Acid. Quenched samples are centrifuged at 15000 rpm for 15 minutes in a benchtop centrifuge before injecting a 10 uL aliquot onto a reverse phase C4 column and eluting into the mass spectrometer with an increasing acetonitrile gradient in the mobile phase. Analysis of raw data may be carried out using Waters MassLynx MS software, with % bound calculated from the deconvoluted protein peaks for labeled and unlabeled K-Ras.
[2] = as §1; remark: listed apart in the source
[3] = as §1; remark: listed apart in the source
[4] = as §1; remark: listed apart in the source
[5] = as §1; remark: listed apart in the source
[6] = as §1; remark: listed apart in the source
[7] = as §1; remark: listed apart in the source

SMILES	IC50 (GTPase KRas)	IC50 [1]	IC50 [2]	IC50 [3]	IC50 [4]	IC50 [5]	IC50 [6]	IC50 [7]
CCn1c(-c2ccccc2COC)c2c3cc(ccc31)-c1cc(O)cc(c1)C[C@H](NC(=O)[C@H](C(C)C)N(C)C(=O)[C@H]1CCN(C(=O)/C=C/CN(C)C)C1)C(=O)N1CCC[C@H](N1)C(=O)OCC(C)(C)C2	in the range around 0.055 µM	–	–	–	–	–	–	–
C=CC(=O)N1CC[C@H](C(=O)N(C)[C@H](C(=O)N[C@H]2Cc3cc(O)cc(c3)-c3ccc4c(c3)c(c(-c3ccccc3CN(C)C)n4CC)CC(C)(C)COC(=O)[C@@H]3CCCN(N3)C2=O)C(C)C)C1	in the range around 0.055 µM	–	–	–	–	–	–	–
C=CC(=O)N1CC[C@H](C(=O)N(C)[C@H](C(=O)N[C@H]2Cc3cc(O)cc(c3)-c3ccc4c(c3)c(c(-c3ccc(CN(C)C)cc3COC)n4CC)CC(C)(C)COC(=O)[C@@H]3CCCN(N3)C2=O)C(C)C)C1	in the range around 0.055 µM	–	–	–	–	–	–	–
C=CC(=O)N1CC[C@H](C(=O)N(C)[C@H](C(=O)N[C@H]2Cc3cc(O)cc(c3)-c3ccc4c(c3)c(c(-c3cncc(CCN(C)C)c3)n4CC)CC(C)(C)COC(=O)[C@@H]3CCCN(N3)C2=O)C(C)C)C1	in the range around 0.55 µM	in the range around 5.5 µM	–	–	–	–	–	–
C=CC(=O)N1CC[C@H](C(=O)N(C)[C@H](C(=O)N[C@H]2Cc3cc(O)cc(c3)-c3ccc4c(c3)c(c(-c3cccnc3CN(C)C)n4CC)CC(C)(C)COC(=O)[C@@H]3CCCN(N3)C2=O)C(C)C)C1	in the range around 0.55 µM	in the range around 5.5 µM	–	–	–	–	–	–
CCn1c(-c2cccnc2C(C)OC)c2c3cc(ccc31)N1CCO[C@@H](C[C@H](NC(=O)[C@H](C(C)C)N(C)C(=O)C3(F)CCN(C(=O)C#CC(C)(C)N(C)C)CC3)C(=O)N3CCC[C@H](N3)C(=O)OCC(C)(C)C2)C1 (some centres undefined)	–	in the range around 5.5 µM	in the range around 5.5 µM	in the range around 0.55 µM	in the range around 5.5 µM	in the range around 5.5 µM	< 0.01 µM	in the range around 5.5 µM
C=CC(=O)N1CC[C@H](C(=O)N(C)[C@H](C(=O)N[C@H]2Cc3cc(O)cc(c3)-c3ccc4c(c3)c(c(-c3cccnc3COC)n4CC#N)CC(C)(C)COC(=O)[C@@H]3CCCN(N3)C2=O)C(C)C)C1	in the range around 0.055 µM	–	–	–	–	–	–	–
C=CC(=O)N1CCO[C@H]2CN(C(=O)N(C)[C@H](C(=O)N[C@H]3C[C@H]4CN(CCO4)c4ccc5c(c4)c(c(-c4cccnc4C(C)OC)n5CC)CC(C)(C)COC(=O)[C@@H]4CCCN(N4)C3=O)C(C)C)C[C@H]21 (some centres undefined)	–	in the range around 5.5 µM	in the range around 5.5 µM	in the range around 0.55 µM	in the range around 5.5 µM	in the range around 5.5 µM	in the range around 0.55 µM	> 10 µM and in the range around 5.5 µM
C=CC(=O)N1CC[C@H](C(=O)N(C)[C@H](C(=O)N[C@H]2Cc3cc(O)cc(c3)-c3ccc4c(c3)c(c(C3=C(COC)COCC3)n4CC)CC(C)(C)COC(=O)[C@@H]3CCCN(N3)C2=O)C(C)C)C1	in the range around 0.055 µM	–	–	–	–	–	–	–
C=CC(=O)N1CC[C@H](C(=O)N(C)[C@H](C(=O)N[C@H]2Cc3cc(O)cc(c3)-c3ccc4c(c3)c(c(-c3cnn(C)c3)n4CC)CC(C)(C)COC(=O)[C@@H]3CCCN(N3)C2=O)C(C)C)C1	in the range around 0.55 µM	in the range around 5.5 µM	–	–	–	–	–	–
C=CC(=O)N1CC[C@H](C(=O)N(C)[C@H](C(=O)N[C@H]2Cc3cc(OC(=O)N(C)CC(=O)O)cc(c3)-c3ccc4c(c3)c(c(-c3ccccc3CCOC)n4CC)CC(C)(C)COC(=O)[C@@H]3CCCN(N3)C2=O)C(C)C)C1	in the range around 0.55 µM	–	–	–	–	–	–	–
C=CC(=O)N1CC[C@H](C(=O)N(C)C(C(=O)N[C@H]2C[C@H]3CN(CCO3)c3ccc4c(c3)c(c(-c3cccnc3C(C)OC)n4CC)CC(C)(C)COC(=O)[C@@H]3CCCN(N3)C2=O)C(C)C)C1 (some centres undefined)	–	in the range around 5.5 µM	in the range around 5.5 µM	in the range around 5.5 µM	> 10 µM	> 10 µM	in the range around 0.55 µM	> 10 µM
C=CC(=O)N1CC[C@H](C(=O)N(C)[C@H](C(=O)N[C@H]2Cc3cc(O)cc(c3)-c3ccc4c(c3)c(c(-c3ccc5c(c3)CCN(C)C5)n4CC)CC(C)(C)COC(=O)[C@@H]3CCCN(N3)C2=O)C(C)C)C1	in the range around 0.55 µM	in the range around 5.5 µM	–	–	–	–	–	–
CCn1c(-c2cccnc2C(C)OC)c2c3cc(ccc31)N1CCC[C@@H](C[C@H](NC(=O)[C@H](C(C)C)N(C)C(=O)[C@H]3CCN(C(=O)C#CC(C)(C)N4CCC4)C3)C(=O)N3CCC[C@H](N3)C(=O)OCC(C)(C)C2)C1 (some centres undefined)	–	> 10 µM	> 10 µM	> 10 µM	> 10 µM	> 10 µM	in the range around 0.055 µM	> 10 µM
C=CC(=O)N1CC(C(=O)N(C)[C@H](C(=O)N[C@H]2Cc3cc(O)cc(c3)-c3ccc4c(c3)c(c(-c3cccnc3COC)n4CC)CC(C)(C)COC(=O)[C@@H]3CCCN(N3)C2=O)C(C)C)C1	in the range around 0.055 µM	in the range around 5.5 µM	–	–	–	–	–	–
C=CC(=O)N1CC[C@H](C(=O)N(C)[C@H](C(=O)N[C@H]2C[C@H]3CN(CCO3)c3ccc4c(c3)c(c(-c3cccnc3C(C)OC)n4CC)CC(C)(C)COC(=O)[C@@H]3CCCN(N3)C2=O)C(C)C)C1 (some centres undefined)	–	in the range around 5.5 µM	in the range around 5.5 µM	in the range around 5.5 µM	> 10 µM	> 10 µM	in the range around 0.55 µM	> 10 µM
C=CC(=O)N1CC[C@H](C(=O)N(C)[C@H](C(=O)N[C@H]2Cc3cc(O)cc(c3)-c3ccc4c(c3)c(c(-c3ccc(C5CCN(C)CC5)nc3)n4CC)CC(C)(C)COC(=O)[C@@H]3CCCN(N3)C2=O)C(C)C)C1	in the range around 0.55 µM	in the range around 5.5 µM	–	–	–	–	–	–

Other lines, results leading:

IC50 (GTPase KRas)	IC50 [1]	IC50 [2]	IC50 [3]	IC50 [4]	IC50 [5]	IC50 [6]	IC50 [7]	SMILES
–	in the range around 5.5 µM	> 10 µM	in the range around 5.5 µM	> 10 µM	in the range around 5.5 µM	in the range around 0.055 µM	> 10 µM	CCn1c(-c2cccnc2C(C)OC)c2c3cc(ccc31)-c1cc(F)cc(c1)C[C@H](NC(=O)[C@@H](COC1CN(C(=O)C#CC(C)(C)N(C)C)C1)C(C)C)C(=O)N1CCC[C@H](N1)C(=O)OCC(C)(C)C2 (some centres undefined)
–	in the range around 5.5 µM	> 10 µM	in the range around 5.5 µM	> 10 µM	in the range around 5.5 µM	< 0.01 µM	> 10 µM	CCn1c(-c2cccnc2C(C)OC)c2c3cc(ccc31)-c1csc(n1)C[C@H](NC(=O)[C@@H](COC1CN(C(=O)C#CC(C)(C)N(C)C)C1)C(C)C)C(=O)N1CCC[C@H](N1)C(=O)OCC(C)(C)C2 (some centres undefined)
–	in the range around 5.5 µM	in the range around 5.5 µM	in the range around 5.5 µM	in the range around 5.5 µM	in the range around 5.5 µM	< 0.01 µM	> 10 µM and in the range around 5.5 µM	CCn1c(-c2cccnc2C(C)OC)c2c3cc(ccc31)-c1csc(n1)C[C@H](NC(=O)CCOC1CN(C(=O)C#CC(C)(C)N(C)C)C1)C(=O)N1CCC[C@H](N1)C(=O)OCC(C)(C)C2 (some centres undefined)
–	in the range around 5.5 µM	in the range around 5.5 µM	in the range around 0.55 µM	in the range around 5.5 µM	in the range around 0.55 µM	in the range around 0.055 µM	in the range around 5.5 µM	C=CC(=O)N1CC(OC[C@H](C(=O)N[C@H]2Cc3cccc(c3)-c3ccc4c(c3)c(c(-c3cccnc3C(C)OC)n4CC(F)(F)F)CC(C)(C)COC(=O)[C@@H]3CCCN(N3)C2=O)C(C)C)C1 (some centres undefined)
–	> 10 µM	> 10 µM	in the range around 5.5 µM	> 10 µM	in the range around 5.5 µM	in the range around 5.5 µM	> 10 µM	C=CC(=O)N1CC(OC[C@H](C(=O)N[C@H]2Cc3cc(cc(C(F)F)c3)-c3ccc4c(c3)c(c(-c3cccnc3C(C)OC)n4CC)CC(C)(C)COC(=O)[C@@H]3CCCN(N3)C2=O)C(C)C)C1 (some centres undefined)
–	> 10 µM	in the range around 5.5 µM	in the range around 5.5 µM	> 10 µM	in the range around 5.5 µM	in the range around 0.55 µM	in the range around 5.5 µM	C=CC(=O)C1CC[C@H](C(=O)C(C)[C@H](C(=O)N[C@H]2Cc3nc(cs3)-c3ccc4c(c3)c(c(-c3cccnc3C(C)OC)n4CC)CC(C)(C)COC(=O)[C@@H]3CCCN(N3)C2=O)C(C)C)C1 (some centres undefined)
–	in the range around 5.5 µM	in the range around 5.5 µM	in the range around 5.5 µM	> 10 µM	in the range around 5.5 µM	< 0.01 µM	in the range around 5.5 µM	COC(C)c1ncccc1-c1c2c3cc(ccc3n1CC(F)(F)F)-c1csc(n1)C[C@H](NC(=O)[C@@H](COC1CN(C(=O)C#CC(C)(C)N(C)C)C1)C(C)C)C(=O)N1CCC[C@H](N1)C(=O)OCC(C)(C)C2 (some centres undefined)
–	> 10 µM	> 10 µM	in the range around 5.5 µM	> 10 µM	> 10 µM	in the range around 0.055 µM	> 10 µM	CCn1c(-c2cccnc2C(C)OC)c2c3cc(ccc31)N1CCO[C@@H](C[C@H](NC(=O)[C@@H](COC3CCN(C(=O)C#CC(C)(C)N(C)C)CC3)C(C)C)C(=O)N3CCC[C@H](N3)C(=O)OCC(C)(C)C2)C1 (some centres undefined)
